ChEMBL document CHEMBL1909046, “DrugMatrix in vitro pharmacology data”

Key:
[1] = molecular target: 5-hydroxytryptamine receptor 1B (Rattus norvegicus, UniProt P28564); format: cell membranes, Wistar, Cerebral cortex, Membrane; also: in other assays of this panel Not Active means under 50% inhibition at 10 µM
[2] = DRUGMATRIX: Phosphodiesterase PDE3 enzyme inhibition (substrate: [3H]cAMP + cAMP); format: tissue-based, Homo sapiens; conditions: platelet; Not Active = under 50% inhibition at 10 µM
[3] = molecular target: T1, Neuropeptide Y receptor type 2 (Homo sapiens, UniProt P49146); format: cell membranes, Membrane; conditions: kan-ts; also: in other assays of this panel Not Active means under 50% inhibition at 10 µM
T1 sequence (P49146 whole entry): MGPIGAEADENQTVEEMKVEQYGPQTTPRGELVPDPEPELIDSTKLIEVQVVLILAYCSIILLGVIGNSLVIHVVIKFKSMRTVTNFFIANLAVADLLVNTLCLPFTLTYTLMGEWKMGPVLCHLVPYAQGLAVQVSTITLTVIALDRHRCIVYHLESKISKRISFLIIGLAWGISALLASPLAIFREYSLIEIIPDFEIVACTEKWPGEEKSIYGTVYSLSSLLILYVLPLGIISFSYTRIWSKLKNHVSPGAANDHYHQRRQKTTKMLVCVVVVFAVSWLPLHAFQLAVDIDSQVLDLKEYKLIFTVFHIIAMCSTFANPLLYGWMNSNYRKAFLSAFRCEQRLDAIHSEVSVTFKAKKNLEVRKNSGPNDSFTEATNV

[4] = molecular target: Protein kinase C alpha type (Homo sapiens, UniProt P17252); format: cell-based; conditions: sf9;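 also: inhibition of PKCalpha kinase activity measured in an enzyme assay with histone as the phosphorylation substrate; in other assays of this panel Not Active means under 50% inhibition at 10 µM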
[5] = molecular target: T2, Alpha-1B adrenergic receptor (Rattus norvegicus, UniProt P15823); assay: DRUGMATRIX: Alpha-1B adrenergic receptor radioligand binding (ligand: prazosin); format: cell membranes, Wistar, Liver, Membrane; conditions: Not Active = under 50% inhibition at 10 µM
T2 sequence (P15823 whole entry): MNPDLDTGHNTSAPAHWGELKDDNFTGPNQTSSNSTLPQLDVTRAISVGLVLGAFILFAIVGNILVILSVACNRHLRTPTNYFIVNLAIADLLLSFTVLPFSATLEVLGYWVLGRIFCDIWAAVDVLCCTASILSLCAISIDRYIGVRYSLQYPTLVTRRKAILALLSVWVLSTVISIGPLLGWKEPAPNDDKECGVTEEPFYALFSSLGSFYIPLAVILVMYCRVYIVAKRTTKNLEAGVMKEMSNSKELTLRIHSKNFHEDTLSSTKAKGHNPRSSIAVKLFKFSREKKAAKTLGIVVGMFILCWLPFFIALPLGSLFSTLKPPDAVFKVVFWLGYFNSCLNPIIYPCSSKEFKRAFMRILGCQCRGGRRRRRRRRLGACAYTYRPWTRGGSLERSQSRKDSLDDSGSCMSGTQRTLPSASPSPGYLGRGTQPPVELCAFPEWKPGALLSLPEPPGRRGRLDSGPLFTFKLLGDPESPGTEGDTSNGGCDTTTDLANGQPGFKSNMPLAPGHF

[6] = molecular target: T3, Alpha-2C adrenergic receptor (Homo sapiens, UniProt P18825); assay: DRUGMATRIX: Adrenergic Alpha-2C radioligand binding (ligand: [3H] MK-912); format: cell membranes, Sf9, Membrane
T3 sequence (P18825 whole entry): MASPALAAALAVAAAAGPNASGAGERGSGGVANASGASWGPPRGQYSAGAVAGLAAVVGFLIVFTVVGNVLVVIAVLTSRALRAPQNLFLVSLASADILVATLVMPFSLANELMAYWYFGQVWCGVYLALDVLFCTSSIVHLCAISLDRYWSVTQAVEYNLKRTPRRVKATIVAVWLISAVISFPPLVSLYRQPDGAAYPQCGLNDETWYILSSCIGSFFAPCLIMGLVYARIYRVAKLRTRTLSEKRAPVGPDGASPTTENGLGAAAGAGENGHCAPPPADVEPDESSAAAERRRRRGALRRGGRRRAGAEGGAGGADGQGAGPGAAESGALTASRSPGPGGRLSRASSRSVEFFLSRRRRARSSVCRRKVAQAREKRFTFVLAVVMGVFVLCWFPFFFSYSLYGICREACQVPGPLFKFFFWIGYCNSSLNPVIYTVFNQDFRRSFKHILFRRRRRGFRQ

[7] = molecular target: T4, Angiotensin-converting enzyme (Oryctolagus cuniculus, UniProt P12822); assay: biochemical; format: tissue-based, Lung;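 also: enzymatic inhibition of angiotensin-converting enzyme measured with FAPGG as the substrate; in other assays of this panel Not Active means under 50% inhibition at 10 µM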
T4 sequence (P12822 whole entry): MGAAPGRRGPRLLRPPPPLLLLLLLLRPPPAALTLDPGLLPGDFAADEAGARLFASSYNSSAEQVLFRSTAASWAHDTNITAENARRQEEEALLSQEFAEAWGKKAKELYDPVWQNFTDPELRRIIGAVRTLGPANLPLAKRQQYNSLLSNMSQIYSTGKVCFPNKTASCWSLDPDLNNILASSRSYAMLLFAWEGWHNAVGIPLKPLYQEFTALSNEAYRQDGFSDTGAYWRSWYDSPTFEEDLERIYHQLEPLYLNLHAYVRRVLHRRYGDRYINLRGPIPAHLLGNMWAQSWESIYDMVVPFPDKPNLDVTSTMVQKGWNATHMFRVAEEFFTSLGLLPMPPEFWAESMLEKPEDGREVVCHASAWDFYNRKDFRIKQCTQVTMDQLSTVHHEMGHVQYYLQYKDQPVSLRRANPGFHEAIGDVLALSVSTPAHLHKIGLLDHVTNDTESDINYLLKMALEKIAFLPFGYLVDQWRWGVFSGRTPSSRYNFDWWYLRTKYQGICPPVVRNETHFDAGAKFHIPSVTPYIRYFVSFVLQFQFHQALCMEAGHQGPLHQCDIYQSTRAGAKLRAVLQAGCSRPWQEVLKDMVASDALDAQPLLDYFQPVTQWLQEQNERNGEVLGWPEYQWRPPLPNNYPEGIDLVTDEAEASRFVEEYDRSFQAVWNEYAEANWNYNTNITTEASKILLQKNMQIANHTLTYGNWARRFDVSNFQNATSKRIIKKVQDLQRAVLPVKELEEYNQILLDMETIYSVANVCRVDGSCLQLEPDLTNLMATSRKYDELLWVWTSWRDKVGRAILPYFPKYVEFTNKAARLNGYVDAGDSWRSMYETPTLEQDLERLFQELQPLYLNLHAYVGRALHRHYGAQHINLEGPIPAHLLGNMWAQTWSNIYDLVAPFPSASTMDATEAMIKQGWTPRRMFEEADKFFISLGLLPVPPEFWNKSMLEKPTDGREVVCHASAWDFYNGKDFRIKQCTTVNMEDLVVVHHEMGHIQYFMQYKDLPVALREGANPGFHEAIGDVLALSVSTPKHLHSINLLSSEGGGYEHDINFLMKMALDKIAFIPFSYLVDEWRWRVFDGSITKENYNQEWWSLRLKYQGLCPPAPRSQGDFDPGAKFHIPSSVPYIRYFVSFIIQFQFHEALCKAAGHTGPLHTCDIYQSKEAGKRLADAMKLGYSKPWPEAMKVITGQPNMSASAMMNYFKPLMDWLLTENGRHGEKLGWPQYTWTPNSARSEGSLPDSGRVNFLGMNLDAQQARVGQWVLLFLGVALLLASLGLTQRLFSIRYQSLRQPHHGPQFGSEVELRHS

[8] = molecular target: Vasopressin V1a receptor (Homo sapiens, UniProt P37288); format: cell membranes, Membrane; conditions: hek293; also: in other assays of this panel Not Active means under 50% inhibition at 10 µM
Chain of Vasopressin V1a receptor (P37288 whole entry): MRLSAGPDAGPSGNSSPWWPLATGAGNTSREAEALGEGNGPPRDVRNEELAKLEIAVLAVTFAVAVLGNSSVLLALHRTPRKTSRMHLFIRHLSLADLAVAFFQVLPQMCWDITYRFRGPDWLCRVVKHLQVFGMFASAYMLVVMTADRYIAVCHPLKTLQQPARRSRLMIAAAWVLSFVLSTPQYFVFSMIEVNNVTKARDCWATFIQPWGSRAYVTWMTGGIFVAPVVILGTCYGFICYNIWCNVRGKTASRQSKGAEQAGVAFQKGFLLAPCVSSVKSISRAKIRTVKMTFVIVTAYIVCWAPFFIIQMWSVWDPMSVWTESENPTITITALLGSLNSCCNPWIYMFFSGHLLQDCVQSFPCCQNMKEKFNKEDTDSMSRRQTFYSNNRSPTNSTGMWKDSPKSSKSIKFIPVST

Chain of 5-hydroxytryptamine receptor 1B (P28564 whole entry): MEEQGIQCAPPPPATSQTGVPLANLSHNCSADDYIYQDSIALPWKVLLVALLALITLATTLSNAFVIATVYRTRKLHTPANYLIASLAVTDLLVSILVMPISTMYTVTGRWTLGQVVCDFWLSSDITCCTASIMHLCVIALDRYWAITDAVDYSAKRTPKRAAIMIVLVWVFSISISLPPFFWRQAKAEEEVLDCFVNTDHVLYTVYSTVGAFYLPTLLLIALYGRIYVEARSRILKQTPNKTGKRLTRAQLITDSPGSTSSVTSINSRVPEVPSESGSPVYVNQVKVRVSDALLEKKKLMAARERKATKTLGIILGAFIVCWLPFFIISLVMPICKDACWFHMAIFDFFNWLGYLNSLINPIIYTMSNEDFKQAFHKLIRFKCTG

Structure (SMILES)	IC50 [1]	IC50 [2]	Ki [2]	IC50 [3]	IC50 [4]	IC50 [5]	IC50 ([6]; sf9)	IC50 [7]	IC50 [8]	further results
O=[N+]([O-])c1cc([As](=O)(O)O)ccc1O [ROXARSONE]	Not Active	Not Active	Not Active	Not Active	Not Active	Not Active	Not Active	Not Active	Not Active	Ki [1]: Not Active; Ki [3]: Not Active; Ki [4]: Not Active; Ki [5]: Not Active; Ki ([6]; sf9): Not Active; Ki [7]: Not Active; Ki [8]: Not Active
CC1CN(c2cc3c(cc2F)c(=O)c(C(=O)O)cn3-c2ccc(F)cc2F)CCN1 (stereo unspecified) [TEMAFLOXACIN]	Not Active	Not Active	Not Active	Not Active	Not Active	Not Active	Not Active	Not Active	Not Active	–
COc1ccc(CCN2CCC(Nc3nc4ccccc4n3Cc3ccc(F)cc3)CC2)cc1 [ASTEMIZOLE]	–	–	–	Not Active	Not Active	–	–	Not Active	Not Active	IC50 ([1]; read-out: IC50): 1390 nM; Ki ([1]; read-out: Ki): 630 nM
CC1(C)[C@H]2CC[C@]1(C)C(=O)C2 [(-)-CAMPHOR]	Not Active	Not Active	Not Active	Not Active	Not Active	Not Active	Not Active	Not Active	Not Active	–
CC(CCc1ccccc1)NCC(O)c1ccc(O)c(C(N)=O)c1 (stereo unspecified) [LABETALOL]	Not Active	Not Active	Not Active	Not Active	Not Active	–	Not Active	Not Active	Not Active	IC50 ([5]; read-out: IC50): 583 nM; Ki ([5]; read-out: Ki): 323 nM
CN1[C@@H]2CC[C@H]1C[C@@H](OC(=O)c1c[nH]c3ccccc13)C2 [TROPISETRON]	Not Active	Not Active	Not Active	Not Active	Not Active	Not Active	Not Active	Not Active	Not Active	–
NC(=O)c1ncn([C@@H]2O[C@H](CO)[C@@H](O)[C@H]2O)n1 [RIBAVIRIN]	Not Active	Not Active	Not Active	Not Active	Not Active	Not Active	Not Active	Not Active	Not Active	–
O=C(CCCN1CCC(O)(c2ccc(Cl)cc2)CC1)c1ccc(F)cc1 [HALOPERIDOL]	Not Active	–	–	Not Active	Not Active	–	–	Not Active	Not Active	–
CN(C)CCCN1c2ccccc2CCc2ccc(Cl)cc21 [CLOMIPRAMINE]	Not Active	–	–	Not Active	Not Active	–	–	Not Active	Not Active	–
CN1CCN2c3ccccc3Cc3ccccc3C2C1 (stereo unspecified) [MIANSERIN]	Not Active	–	–	Not Active	Not Active	–	–	Not Active	Not Active	IC50 ([6]; read-out: IC50): 179 nM; Ki ([6]; read-out: Ki): 26 nM
CSc1ccc2c(c1)N(CCC1CCCCN1C)c1ccccc1S2 (stereo unspecified) [THIORIDAZINE]	Not Active	–	–	Not Active	Not Active	–	–	Not Active	Not Active	–
Clc1ccccc1C(c1ccccc1)(c1ccccc1)n1ccnc1 [CLOTRIMAZOLE]	–	–	–	Not Active	Not Active	–	–	Not Active	Not Active	IC50 ([1]; read-out: IC50): 27300 nM; Ki ([1]; read-out: Ki): 12400 nM
CC(C)(O)c1ccccc1CC[C@@H](SCC1(CC(=O)O)CC1)c1cccc(/C=C/c2ccc3ccc(Cl)cc3n2)c1 [MONTELUKAST]	Not Active	–	–	Not Active	Not Active	–	–	Not Active	Not Active	–
COC(=O)[C@@H]1[C@H]2C[C@H]3c4[nH]c5ccccc5c4CCN3C[C@@H]2CC[C@@H]1O [YOHIMBINE]	Not Active	Not Active	Not Active	Not Active	Not Active	–	–	Not Active	Not Active	IC50 ([5]; read-out: IC50): 1190 nM; Ki ([5]; read-out: Ki): 658 nM
COc1cccc(C2(O)CCCCC2CN(C)C)c1 (stereo unspecified) [TRAMADOL]	Not Active	–	–	Not Active	Not Active	–	Not Active	Not Active	Not Active	–
